{
  "source": "paper PMC4014323",
  "about": "“Structure of tyrosine aminotransferase from Leishmania infantum” (Acta Crystallographica. Section F, Structural Biology …, 2014)",
  "molecules": {"B1": {"name": "Leishmania infantum tyrosine aminotransferase, truncated (lacking the first 114 nucleotides of the annotated sequence) (domain or fragment, UniProt A4IDL0 39-448, looked up)", "chain": "TSFRRIASSKHAQRTLQPLNNLTDNMKPSRSTKSNLRLSIGDPTVDGNLKTPDIVTEAMVDVVRSGKFNGYPPTVGADNLRQVVSTYWRRFCQTKSRQEALKWENVIITSGVSQAIVLALTALCNEGDNILVCAPSFPHYKSVCDSYGIECRYYYLDPSKSWECDLRAAAGMVDSHTKAFVIINPSNPCGSNFSRAHVSDIIDFCQQHQIPLISDEIYAEMVLNNGIFTSVADFDTNVPRLILGGTAKYQVCPGWRVGWSILIDPMNVAGDWAVGMERLTQLIAGVNSICQEAIARTLLKCPTECTEHIVTQLEAGAKVYARLLEHDIGISMEAPQASMFVMLKLNLSYFQDLKSDMEFYEKLLDEENVQVLPGEIFGMSGFLRATVSRPSAVLNEAVDRIIEFCERHKK", "modifications": "PLP covalently bound to Lys286", "notes": "residues Ser40-Lys448 built in chain A of the crystal structure; they are worked out from the deletion of the first 114 nucleotides of a protein of 448 amino acids; source: E. coli BL21 (DE3) pLysS, purified (HisTrap FF, Superdex 75 SEC); not shown: His tag (from the vector pRSET-A)"}, "B2": {"name": "Leishmania infantum tyrosine aminotransferase, full length (enzyme, UniProt A4IDL0 1-448, looked up)", "chain": "MTIDTQAAPAAQTLKAGNSTGSLTEERREVEQQRAAENTSFRRIASSKHAQRTLQPLNNLTDNMKPSRSTKSNLRLSIGDPTVDGNLKTPDIVTEAMVDVVRSGKFNGYPPTVGADNLRQVVSTYWRRFCQTKSRQEALKWENVIITSGVSQAIVLALTALCNEGDNILVCAPSFPHYKSVCDSYGIECRYYYLDPSKSWECDLRAAAGMVDSHTKAFVIINPSNPCGSNFSRAHVSDIIDFCQQHQIPLISDEIYAEMVLNNGIFTSVADFDTNVPRLILGGTAKYQVCPGWRVGWSILIDPMNVAGDWAVGMERLTQLIAGVNSICQEAIARTLLKCPTECTEHIVTQLEAGAKVYARLLEHDIGISMEAPQASMFVMLKLNLSYFQDLKSDMEFYEKLLDEENVQVLPGEIFGMSGFLRATVSRPSAVLNEAVDRIIEFCERHKK", "notes": "Tyrosine aminotransferase of Leishmania infantum (MHOM/ES/98/10445), full-length gene LinJ.36.2490 encoding 448 amino acids; Cloned BamHI/HindIII into pRSET-A; PLP (4 uM) was in the lysis and IMAC buffers; also called LiTAT; TAT; source: E. coli BL21 (DE3) pLysS, purified (HisTrap FF, Superdex 75 SEC); not shown: His tag (from the vector pRSET-A)"}},
  "key": {"LiTAT_truncated [1]": {"biological_target": "T1, LiTAT_truncated (Leishmania infantum, UniProt A4IDL0)", "T1 construct": "gene TAT; E. coli BL21(DE3) pLysS; homodimer; model Ser40-Lys448", "T1 sequence (A4IDL0 39-448)": "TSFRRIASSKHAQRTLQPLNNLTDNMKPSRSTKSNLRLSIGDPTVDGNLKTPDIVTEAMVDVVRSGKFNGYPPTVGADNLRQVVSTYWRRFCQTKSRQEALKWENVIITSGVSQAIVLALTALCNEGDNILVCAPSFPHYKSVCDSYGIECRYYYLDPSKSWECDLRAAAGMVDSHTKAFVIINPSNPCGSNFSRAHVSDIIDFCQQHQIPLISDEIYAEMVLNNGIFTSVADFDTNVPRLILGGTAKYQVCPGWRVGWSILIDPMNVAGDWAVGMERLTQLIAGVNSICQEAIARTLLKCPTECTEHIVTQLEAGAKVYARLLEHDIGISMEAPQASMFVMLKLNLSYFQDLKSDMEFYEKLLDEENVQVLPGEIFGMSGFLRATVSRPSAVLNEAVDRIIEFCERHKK", "experiment": "Diamondstone p-hydroxybenzaldehyde assay", "assay_type": "biochemical"}, "LiTAT_truncated [2]": {"biological_target": "T1, LiTAT_truncated", "experiment": "X-ray crystallography, […] A", "assay_type": "binding", "settings": "covalent, internal aldimine at Lys286; crystals at pH 8.5"}, "[3]": {"biological_target": "the molecule itself", "experiment": "SEC; HiLoad 26/60 Superdex 75 prep grade, room temperature, 20 mM HEPES pH 7.0, 300 mM NaCl, 5% glycerol, 1 mM TCEP; molecular weight estimated from a calibration curve (Low Molecular Weight Kit)"}},
  "data": [
    {"molecule": "CC(=O)C(=O)O", "note": "[pyruvate]", "values": [
      {"measurement": "Diamondstone p-hydroxybenzaldehyde assay", "setting": "LiTAT_truncated [1]; amino acceptor, co-substrate tyrosine", "value": "it can transaminate pyruvate with high efficiency"}
    ]},
    {"molecule": "N[C@@H](Cc1ccc(O)cc1)C(=O)O", "note": "[tyrosine]", "values": [
      {"measurement": "Diamondstone p-hydroxybenzaldehyde assay", "setting": "LiTAT_truncated [1]; amino donor, co-substrate pyruvate", "value": "using tyrosine as the amino donor"}
    ]},
    {"molecule": "Cc1ncc(COP(=O)(O)O)c(C=O)c1O", "note": "[PLP]", "values": [
      {"measurement": "X-ray crystallography, 2.35 A", "setting": "LiTAT_truncated [2]", "value": "In both subunits of LiTAT, PLP is covalently bound to Lys286"}
    ]},
    {"molecule": "B1", "values": [
      {"measurement": "stoichiometry N", "setting": "[3]", "value": 2}
    ]},
    {"molecule": "B2", "values": [
      {"measurement": "stoichiometry N", "setting": "[3]", "value": 2}
    ]}
  ]
}
